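Where inhibition never reached the appropriate level, the endpoint shown equals the highest concentration tested. Otherwise, values were interpolated linearly from a five-concentration, 48-hour dose response in 96-well plates. Abbreviation: GI50, concentration required for 50% inhibition of growth.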 Calls of active or inactive are those of the source. Cut-off read from the data, not from the text of the source: active = GI50 up to about 1.1 µM and inactive = higher.
How the values were obtained:
Assay in all cases: DTP human tumour cell line panel, 48 h
U-251 = tested on: U-251
ACHN = tested on: ACHN
UO-31 = tested on: UO-31
MDA-MB-435 = tested on: MDA-MB-435
OVCAR-8 = tested on: OVCAR-8
NCI-H226 = tested on: NCI-H226
SK-MEL-2 = tested on: SK-MEL-2
KM12 = tested on: KM12
HCC 2998 = tested on: HCC 2998
HCT-15 = tested on: HCT-15
MDA-N = tested on: MDA-N
RPMI-8226 = tested on: RPMI-8226
SNB-75 = tested on: SNB-75
Hs-578T = tested on: Hs-578T
SNB-19 = tested on: SNB-19
CCRF-CEM = tested on: CCRF-CEM
MOLT-4 = tested on: MOLT-4
NCI-H522 = tested on: NCI-H522
TK-10 = tested on: TK-10
LOX IMVI = tested on: LOX IMVI
MDA-MB-231 = tested on: MDA-MB-231
K562 = tested on: K562
OVCAR-5 = tested on: OVCAR-5
COLO 205 = tested on: COLO 205
T47D = tested on: T47D
NCI-H460 = tested on: NCI-H460
786-0 = tested on: 786-0
IGROV-1 = tested on: IGROV-1
RXF 393 = tested on: RXF 393
OVCAR-4 = tested on: OVCAR-4
UACC-62 = tested on: UACC-62
MCF7 = tested on: MCF7
SW-620 = tested on: SW-620
SR = tested on: SR
SF-268 = tested on: SF-268
SK-MEL-5 = tested on: SK-MEL-5
SN12C = tested on: SN12C
HOP-92 = tested on: HOP-92
DU-145 = tested on: DU-145
UACC-257 = tested on: UACC-257
HT-29 = tested on: HT-29
M14 = tested on: M14
SF-295 = tested on: SF-295
NCI-H23 = tested on: NCI-H23
SK-MEL-28 = tested on: SK-MEL-28
HL-60 = tested on: HL-60
OVCAR-3 = tested on: OVCAR-3
A549 = tested on: A549
BT-549 = tested on: BT-549
Malme-3M = tested on: Malme-3M
PC-3 = tested on: PC-3
HCT-116 = tested on: HCT-116
EKVX = tested on: EKVX
HOP-62 = tested on: HOP-62
A498 = tested on: A498

SMILES: CN1CCN(C(=S)N(C)C(=O)c2ccc(Cl)cc2)CC1
- GI50 (U-251): > 100 µM (inactive)
- GI50 (ACHN): 0.132 µM (active)
- GI50 (UO-31): > 100 µM (inactive)
- GI50 (MDA-MB-435): > 100 µM (inactive)
- GI50 (OVCAR-8): > 100 µM (inactive)
- GI50 (NCI-H226): > 100 µM (inactive)
- GI50 (SK-MEL-2): > 100 µM (inactive)
- GI50 (KM12): > 100 µM (inactive)
- GI50 (HCC 2998): > 100 µM (inactive)
- GI50 (HCT-15): > 100 µM
- GI50 (MDA-N): > 100 µM (inactive)
- GI50 (RPMI-8226): > 100 µM (inactive)
- GI50 (SNB-75): > 100 µM (inactive)
- GI50 (Hs-578T): > 100 µM (inactive)
- GI50 (SNB-19): > 100 µM (inactive)
- GI50 (CCRF-CEM): > 100 µM (inactive)
- GI50 (MOLT-4): > 100 µM (inactive)
- GI50 (NCI-H522): > 100 µM (inactive)
- GI50 (TK-10): > 100 µM (inactive)
- GI50 (LOX IMVI): > 100 µM (inactive)
- GI50 (MDA-MB-231): > 100 µM (inactive)
- GI50 (K562): > 100 µM (inactive)
- GI50 (OVCAR-5): > 100 µM (inactive)
- GI50 (COLO 205): > 100 µM (inactive)
- GI50 (T47D): > 100 µM (inactive)
- GI50 (NCI-H460): > 100 µM (inactive)
- GI50 (786-0): > 100 µM (inactive)
- GI50 (IGROV-1): > 100 µM (inactive)
- GI50 (RXF 393): > 100 µM (inactive)
- GI50 (OVCAR-4): > 100 µM (inactive)
- GI50 (UACC-62): > 100 µM (inactive)
- GI50 (MCF7): > 100 µM (inactive)
- GI50 (SW-620): > 100 µM (inactive)
- GI50 (SR): > 10 µM (inactive)
- GI50 (SF-268): > 100 µM (inactive)
- GI50 (SK-MEL-5): > 100 µM (inactive)
- GI50 (SN12C): > 100 µM (inactive)
- GI50 (HOP-92): > 100 µM (inactive)
- GI50 (DU-145): > 100 µM (inactive)
- GI50 (UACC-257): > 100 µM (inactive)
- GI50 (HT-29): > 100 µM (inactive)
- GI50 (M14): > 100 µM (inactive)
- GI50 (SF-295): > 100 µM (inactive)
- GI50 (NCI-H23): > 100 µM (inactive)
- GI50 (SK-MEL-28): > 100 µM (inactive)
- GI50 (HL-60): > 100 µM (inactive)
- GI50 (OVCAR-3): > 100 µM (inactive)
- GI50 (A549): > 100 µM (inactive)
- GI50 (BT-549): > 100 µM (inactive)
- GI50 (Malme-3M): > 100 µM (inactive)

SMILES: NC(CCCCNC(=O)OCc1ccccc1)C(=O)NC(CCCCNC(=O)OCc1ccccc1)C(=O)ON1C(=O)CCC1=O (configuration not stated)
- GI50 (U-251): > 100 µM (inactive)
- GI50 (ACHN): > 100 µM (inactive)
- GI50 (UO-31): > 100 µM (inactive)
- GI50 (OVCAR-8): > 100 µM (inactive)
- GI50 (NCI-H226): > 100 µM (inactive)
- GI50 (SK-MEL-2): > 100 µM (inactive)
- GI50 (KM12): > 100 µM (inactive)
- GI50 (HCC 2998): > 100 µM (inactive)
- GI50 (HCT-15): > 100 µM
- GI50 (MDA-N): > 100 µM (inactive)
- GI50 (RPMI-8226): > 100 µM (inactive)
- GI50 (SNB-75): 27.2 µM (inactive)
- GI50 (Hs-578T): > 100 µM (inactive)
- GI50 (SNB-19): > 100 µM (inactive)
- GI50 (CCRF-CEM): > 100 µM (inactive)
- GI50 (PC-3): > 100 µM (inactive)
- GI50 (MOLT-4): > 100 µM (inactive)
- GI50 (TK-10): > 100 µM (inactive)
- GI50 (MDA-MB-231): > 100 µM (inactive)
- GI50 (K562): > 100 µM (inactive)
- GI50 (OVCAR-5): > 100 µM (inactive)
- GI50 (COLO 205): > 100 µM (inactive)
- GI50 (T47D): > 100 µM (inactive)
- GI50 (NCI-H460): > 100 µM (inactive)
- GI50 (HCT-116): > 100 µM (inactive)
- GI50 (EKVX): > 100 µM (inactive)
- GI50 (786-0): > 100 µM (inactive)
- GI50 (IGROV-1): > 100 µM (inactive)
- GI50 (RXF 393): 52.7 µM (inactive)
- GI50 (UACC-62): > 100 µM (inactive)
- GI50 (MCF7): > 100 µM (inactive)
- GI50 (SW-620): > 100 µM (inactive)
- GI50 (SR): > 100 µM (inactive)
- GI50 (SK-MEL-5): > 100 µM (inactive)
- GI50 (SN12C): > 100 µM (inactive)
- GI50 (HOP-92): > 100 µM (inactive)
- GI50 (UACC-257): > 100 µM (inactive)
- GI50 (HT-29): > 100 µM (inactive)
- GI50 (M14): > 100 µM (inactive)
- GI50 (HOP-62): > 100 µM (inactive)
- GI50 (NCI-H23): > 100 µM (inactive)
- GI50 (SK-MEL-28): > 100 µM (inactive)
- GI50 (A498): > 100 µM (inactive)
- GI50 (HL-60): > 100 µM (inactive)
- GI50 (A549): > 100 µM (inactive)
- GI50 (BT-549): > 100 µM (inactive)
- GI50 (Malme-3M): 61.4 µM (inactive)
